From patent publication US6737241B2, “Methods for screening for transdominant intracellular effector peptides and RNA molecules” (Rigel Pharmaceuticals, Inc., priority 1996, dated 2004)

Legend:
[1] = tested on: NIH 3T3 cells; test: Staurosporine induction of apoptosis (ethidium bromide/acridine orange double staining); format: cell-based; conditions: 1 uM in serum-free media, within 24 hours
Experimental: D. Staurosporine selection. Staurosporine, an alkaloid from Streptomyces sp., is a potent, broad spectrum inhibitor of protein kinases which binds the ATP site. Addition of 1 uM staurosporine in serum-free media to NIH 3T3 cells induced >99% apoptosis within 24 hours, as determined by ethidium bromide/acridine orange double staining as described for the Fas selection.

[2] = tested on: 3T3 cells; test: Apotag / TUNEL assay of apoptosis induced by hTNFa and cycloheximide; format: cell-based; conditions: expressed in 3T3 cells from an MSCV retroviral promoter; hTNFa 50 ng/ml + cycloheximide 6 hours, harvested at 24 hours
Experimental: Apotag assay: TUNEL (TdT-mediated dUTP-fluorescein nick end labeling) Boehringer Mannheim kit, catalog no. 168795
3T3 cells transiently infected with either MFGLacZ, BCL2, or […] plasmids were grown to 50% confluence at the time of induction with hTNFa (50 ng/ml media) and cycloheximide ([…] media) for 6 hours. Cells were washed at 6 hours and harvested at 24 hours after induction. Cells were harvested by pooling all media from cells (in order to collect any apoptotic, floating cells) with the washings and trypsinized cells. The cells were spun and washed with PBS containing 1% BSA, transferred to an eppendorf tube and the wash repeated once.
Cells were fixed in 4% paraformaldehyde at room temperature for 30 minutes, washed in PBS/BSA, then resuspended in permeabilisation buffer for 2 minutes on ice. After permeabilisation, cells were washed twice in PBS/BSA and incubated at 37° C. for 1 hour with labeling buffer containing fluoresceinated dUTP, unlabeled nucleotide mixture and terminal deoxynucleotidyl transferase (TdT). Cells were washed twice with PBS/BSA, resuspended in PBS/BSA and transferred to a FACS tube for analysis. Samples were also visualized under the fluorescence microscope.

[3] = tested on: 3T3 cells; test: Propidium iodide staining of fixed cells to assay for apoptosis (TNF/CXH); format: cell-based; conditions: expressed in 3T3 cells
Experimental: Propidium Iodide staining of fixed cells to assay for apoptosis: (Sherwood and Schimke, Methods in Cell Biology, 46:77-87, 1995) 3T3 cells transiently infected with MFGLacZ, Bcl2, or CPP32 were plated and treated with TNF/CXH as described above, and harvested and washed as above. Cells were then resuspended in 70% ethanol in PBS at 4° C. and kept at 4° C. overnight. When ready to FACS, cells were stained with propidium iodide as follows. Cells were spun at 14,000 RPM for 10 seconds and washed once with PBS/BSA. Cells were then resuspended in […] staining solution (PBS with 50 mg/ml RNase A (DNase-free) with 10 mg/ml propidium iodide) and incubated at 37° C for at least 1 hour. Cells were then pelleted and resuspended in PBS/BSA solution containing 10 mg/ml propidium iodide and analyzed by FACS scanning.

[4] = molecular target: T1, CPP32 (Mus musculus, UniProt P70677); test: Enzymatic assay of CPP32 activity (DEVD-pNA cleavage) in extracts of TNF/CXH-stimulated 3T3 cells; format: biochemical; conditions: cell extracts, 30 min to 4 hours after TNF/CXH; control WIN cells rise at 2 hours
T1 construct: endogenous in cells; host or cells: 3T3 cells (lysate after TNF/cycloheximide stimulation)
T1 sequence (P70677 29-175 limits assumed): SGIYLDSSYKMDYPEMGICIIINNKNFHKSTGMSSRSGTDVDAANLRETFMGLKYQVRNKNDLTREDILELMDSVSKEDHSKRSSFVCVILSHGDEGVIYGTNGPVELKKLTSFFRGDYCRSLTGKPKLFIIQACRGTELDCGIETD
T1 sequence (P70677 176-277 limits assumed): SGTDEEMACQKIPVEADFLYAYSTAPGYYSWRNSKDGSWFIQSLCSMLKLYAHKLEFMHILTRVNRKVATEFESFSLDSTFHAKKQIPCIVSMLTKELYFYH
Experimental: Enzymatic Assay of CPP32 activity: CPP32 Assay Kit: Clontech CPP32 Colorimetric Assay Kit (Cat. No. K2027-2): 3T3 cells were infected with the vectors described in Part I, section C, and selected in G418 media prior to assay. 6-well plates of 3T3 cells at near confluence were stimulated with TNF/CXH as described above and harvested at 30 min, 1, 2 and 4 hours after stimulation as follows. Cells were trypsinized and collected as described above. After transfering to an eppendorf tube, cells were spun and resuspended in […] chilled Cell Lysis Buffer. Cells were incubated for 10 minutes on ice, then […] of 2× Reaction Buffer containing DTT was added to each tube. 5 ml of the calorimetric conjugated substrate (DEVD-paranitroanilide, 50 mM final concentration) was added to each tube and incubated at 37° C. for 30 minutes. Samples were transferred to a 96 well plate and read on a spectrophotometer at O.D. of 405. […] By 4 hours, cells have begun to die and the activity is decreased. […] In the case of BCL2, it should be due to inhibition of apoptosis upstream of the enzyme. With CPP32 inhibitor peptide, it should be due to direct inhibition of enzymatic activity. These in vitro results are consistent with the results seen in cell death assays described above.

[5] = tested on: PKCa; test: PKCa localization by immunohistochemistry after PMA stimulation; format: cell-based, Murine
[6] = tested on: cells; test: Staurosporin induced apoptosis in cells expressing the peptide with a retrovirus; format: cell-based; conditions: peptide expressed in cells with a retrovirus
[7] = tested on: Jurkat EcoR cells; test: IgM anti-Fas (CH-11) selection of retrovirus-transduced Jurkat cells; conditions: peptide expressed in cells with a retrovirus
Experimental: A sterile Acrodisc 0.45 micron syringe filter (Gelman Sciences) was attached to the end of a 10 ml sterile syringe and the injection stopper sterilely removed from the syringe barrel. At 48 hours post-transfection, the virus supernatant was removed from the Phoenix cells and added to the syringe barrel. The stopper was replaced and the virus supernatant was ejected dropwise into a clean, sterile conical tube. […] Polybrene was added to each viral supernatant (Sigma; 2.5 mg/ml in ddH20=500×; store at −20° C.) to a final concentration of 5 mg/ml. 4.5×10^6 Jurkat EcoR cells (Jurkat cells stably expressing the ecotropic retrovirus receptor) were pelleted for 1400 rpm for five min and resuspended in 9 mls of the OL-2 library virus supernatant. The cells were distributed in aliquots of 1 ml, or 5×10^5 cells, into the wells of a 24 well plate. 1.5×10^6 Jurkat EcoR cells were similarly treated with 3 mls each of the lacZ viral supernatant and the OL-1 viral supernatant. Each cell plate was wrapped in parafilm, placed in a microplate carrier (DuPont) and centrifuged at 2500 rpm for 90 min at 32° C. in a DuPont/Sorvall RT 6000B table top centrifuge. After centrifugation, the cells were observed under a microscope. […] The parafilm was removed from the plates, which were placed at 32° C. […]

Compound: CN[C@@H]1C[C@H]2O[C@@](C)([C@@H]1OC)n1c3ccccc3c3c4c(c5c6ccccc6n2c5c31)C(=O)NC4 [staurosporine, Staurosporine]
- apoptosis [1]: > 99%

Compound: Bcl2: Bcl2 protein expressed from a retroviral vector; known inhibitor of apoptosis, positive control
- inhibition of apoptosis induced by tumor necrosis factor and cycloheximide (TUNEL) [2]: able to inhibit apoptosis
- inhibition of apoptosis induced by tumor necrosis factor and cycloheximide (PI staining) [3]: able to inhibit apoptosis
- CPP32 enzyme activity (cleavage of DEVD-pNA) [4]: this rise in activity is not seen

Compound: GKQKTKTIKGPP
- translocation of PKCa to the nucleus [5]: able to specifically inhibit translocation of activated PKCa

Compound: MGKRKGDEVDGVGPP [OL-1]
- inhibition of Staurosporin induced apoptosis [6]: inhibit
- inhibition of Fas-mediated apoptosis [7]: inhibit
